This note sets out measurements from patent US11384063B2, “Modulators of estrogen receptor proteolysis and associated methods of use” (Arvinas Operations, Inc., priority 2017, dated 2022).

Like-named read-outs stand apart in the source and are kept apart here.

Test [1] deals with T1, ERα (Homo sapiens, UniProt P03372).
T1 sequence (P03372 1-595): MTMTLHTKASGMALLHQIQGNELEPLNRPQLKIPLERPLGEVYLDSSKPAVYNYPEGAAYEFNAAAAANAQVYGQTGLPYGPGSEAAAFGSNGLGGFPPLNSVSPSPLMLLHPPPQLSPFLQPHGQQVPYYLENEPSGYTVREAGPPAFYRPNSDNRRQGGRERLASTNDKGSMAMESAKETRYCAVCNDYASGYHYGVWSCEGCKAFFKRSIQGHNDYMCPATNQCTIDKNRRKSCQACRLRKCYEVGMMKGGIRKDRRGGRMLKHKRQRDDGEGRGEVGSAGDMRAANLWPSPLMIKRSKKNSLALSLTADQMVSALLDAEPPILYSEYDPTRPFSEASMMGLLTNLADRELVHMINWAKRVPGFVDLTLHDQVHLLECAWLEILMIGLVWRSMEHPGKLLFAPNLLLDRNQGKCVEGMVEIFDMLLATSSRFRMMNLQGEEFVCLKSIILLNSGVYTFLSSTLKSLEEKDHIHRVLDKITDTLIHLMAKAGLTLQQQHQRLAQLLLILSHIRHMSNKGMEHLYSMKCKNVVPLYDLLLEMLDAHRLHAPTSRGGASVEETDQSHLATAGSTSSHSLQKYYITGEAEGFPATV
The test can be described thus: Estrogen receptor-alpha (ERα) degradation assay in MCF7 cells using In-Cell Western assay. The class given is cell-based. The arrangement: assessed for their activity in degrading ERα in MCF-7 cells via western blot; endogenous in cells; host or cells: MCF7 cells. As to conditions: ER-alpha degradation in MCF7 cells, 5 days of incubation. On the procedure:
Estrogen Receptor-Alpha (ERα) Degradation Assay Using in-Cell Western™ Assay for Table 5.
Degradation of ERα by claimed compounds were determined in MCF7 cells using an In-Cell Western™ assay. Briefly, MCF7 cells were plated in 96-well plates (2000 cells per well in 100 μl media) and incubated at 37° C. under an atmosphere of 5% CO2 in a humidified incubator overnight. One-hundred (100) μI of media containing test compound (at 2x concentration) was added to the appropriate wells to provide 11 serially decreasing concentrations (top final concentration, 1 μM then 3-fold less for the next 10 concentrations); a vehicle control (DMSO) was also added for each compound. For each experiment, all compounds were assayed on duplicate plates. Cells were then incubated for 3 or 5 days in the above-mentioned environment. The assay was terminated by removal of media, a single wash with ice-cold PBS and the addition of 50 μl paraformaldehyde (PFA: 4% in PBS). After 15 minutes in PFA at room temperature, the cells were permeabilized in Tris-phosphate-buffered saline with Tween (0.1%) (TBST) supplemented with Triton X-100 (0.5%) for 15 minutes. Cells were then blocked in BSA (TBST with BSA, 3%) for one hour. Primary antibodies for the detection of ERa (rabbit monoclonal, 1:1000, Cell Signaling Technology Catalog #8644) and tubulin (mouse monoclonal, 1:5000, Sigma Catalog #T6074) in TBST with BSA (3%) were added. The cells were incubated overnight at 4° C. The cells were then washed thrice with TBST at room temperature and then incubated with anti-rabbit and anti-mouse fluorescently-labelled secondary antibodies (IRDye®; LI-COR; Lincoln, Nebr.) in LI-COR blocking buffer (Catalog #927-50000) for one hour at room temperature. Following 3 washes with TBST, the buffer was removed and the plates were read on an Odyssey® infrared imaging system (LI-COR®, Lincoln, Nebr.) at 700 nm and 800 nm. Using commercial software (ImageStudio™; LI-COR, Lincoln, Nebr.), the staining intensity for ERa and tubulin in each well was quantified and exported for analysis. For each data point, ERa intensity was normalized to tubulin intensity and for each compound all normalized intensity values were normalized to the vehicle control. DC50 and Dmax values were determined following a 4-parameter IC50 curve fit using ACAS dose response module (McNeil & Co Inc.).

In test [2] the target is T1, ERα. The test can be described thus: ERE luciferase reporter gene assay in T47D-KBluc cells (target engagement). The class given is cell-based. The arrangement: T47D human breast cancer cells stably transfected with estrogen responsive element/promoter/luciferase reporter gene; host or cells: T47D-KBluc cells. To be noted: 10% FBS, 24 hours. An outline of the steps: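 T47D-KBluc breast cancer cells, which carry a stable ERE-luciferase reporter, were grown in RPMI with 10% FBS (about 10 pM estrogen) and exposed to PROTACs for 24 h. The 12-point, 3-fold series ran from 300 nM to 2 pM. Luciferase was read after lysis, and IC50 was fitted from duplicates.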
(In general: A reporter such as luciferase makes a cellular process visible.)

Setting [3] is: Table 3 cereblon centric PROTACs, read-out: ER-α Luciferase IC50.
Where [4] appears, read: Table 1 cereblon centric PROTACs, read-out: ER-α Luciferase IC50.
[5] abbreviates: Table 2 VHL centric PROTACs, read-out: IC50.

As usually defined, the DC50 is the concentration at which degradation of the target reaches its halfway point. Lower therefore signals a more potent degrader. For orientation: Dmax means the largest share of the target that was removed. The low end stands for shallow degradation, the high end for deep degradation. One may read the IC50 as the concentration that gives 50% inhibition. With `O=C1CCC(N2Cc3cc(N4CCN(C5CCN(CCOc6ccc(Oc7c(-c8ccc(C(F)(F)F)cc8)sc8cc(O)ccc78)cc6)CC5)CC4)ccc3C2=O)C(=O)N1` (stereo not drawn) [Compound 192, 3-[5-[4-[1-[2-[4-[6-hydroxy-2-[4-(trifluoromethyl)phenyl]benzothiophen-3-yl]oxyphenoxy]ethyl]-4-piperidyl]piperazin-1-yl]-1-oxo-isoindolin-2-yl]piperidine-2,6-dione], on ERα [1], the DC50 was in the range of 10 to 100 nM and the Dmax was more than 75%. Further, the IC50 at ERα [2] (setting [3]) was determined as 2.9 nM.
For `COc1ccc(-c2sc3cc(O)ccc3c2Oc2ccc(N3CCC(CN4CCN(c5ccc6c(c5)C(=O)N(C5CCC(=O)NC5=O)C6=O)CC4)CC3)cc2)cc1` (stereo not drawn) [Compound 237, 2-(2,6-dioxo-3-piperidyl)-5-[4-[[1-[4-[6-hydroxy-2-(4-methoxyphenyl)benzothiophen-3-yl]oxyphenyl]-4-piperidyl]methyl]piperazin-1-yl]isoindoline-1,3-dione] the same measures were 10 to 100 nM, more than 75% and 4.9 nM.
As to `O=C1CCC(N2Cc3cc(OCCOCCOc4ccc(Oc5c(-c6ccc(Br)cc6)sc6cc(O)ccc56)cc4)ccc3C2=O)C(=O)N1` (stereo not drawn) [Compound 33, 3-[5-[2-[2-[4-[2-(4-bromophenyl)-6-hydroxy-benzothiophen-3-yl]oxyphenoxy]ethoxy]ethoxy]-1-oxo-isoindolin-2-yl]piperidine-2,6-dione], on ERα [1], the half-maximal degradation concentration (DC50) lay within 1 to 10 nM and the Dmax was 50 to 75%. The IC50 at ERα [2] (setting [4]) was found to be 2.7 nM.
The compound `O=C1CCC(N2Cc3cc(NCCCOCCOCCOc4ccc(Oc5c(-c6ccc(Br)cc6)sc6cc(O)ccc56)cc4)ccc3C2=O)C(=O)N1` (stereo not drawn) [Compound 95, 3-[5-[3-[2-[2-[4[2-(4-bromophenyl)-6-hydroxy-benzothiophen-3-yl]oxyphenoxy]ethoxy]ethoxy]propylamino]-1-oxo-isoindolin-2-yl]piperidine-2,6-dione] returned a Dmax at ERα [1] of less than 50%.
Regarding `O=C1CCC(N2Cc3cc(CCCCN4CCCN(CCOc5ccc(Oc6c(-c7ccc(Br)cc7)sc7cc(O)ccc67)cc5)CC4)ccc3C2=O)C(=O)N1` (stereo not drawn) [Compound 199, 3-[5-[4-[4-[2-[4-[2-(4-bromophenyl)-6-hydroxybenzothiophen-3-yl]oxyphenoxy]ethyl]-1,4-diazepan-1-yl]butyl]-1-oxo-isoindolin-2-yl]piperidine-2,6-dione], at ERα [1], the DC50 fell in the range of 1 to 10 nM and the Dmax lay within 50 to 75%. At ERα [2] (setting [3]), the IC50 was 0.82 nM.
On the same counts, the results for `O=C1CCC(N2Cc3cc(N4CCN(CC5CCN(c6ccc(Oc7c(-c8ccc(F)cc8)sc8cc(O)ccc78)cn6)CC5)CC4)ccc3C2=O)C(=O)N1` (stereo not drawn) [Compound 232, 3-[5-[4-[[1-[5-[2-(4-fluorophenyl)-6-hydroxy-benzothiophen-3-yl]oxy-2-pyridyl]-4-piperidyl]methyl]piperazin-1-yl]-1-oxo-isoindolin-2-yl]piperidine-2,6-dione] are less than 1 nM, more than 75% and 1.6 nM.
On ERα [1], `O=C1CCC(N2C(=O)c3ccc(N4CCN(CCCCCOc5ccc(Oc6c(-c7ccc(Br)cc7)sc7cc(O)ccc67)cc5)CC4)cc3C2=O)C(=O)N1` (stereo not drawn) [Compound 61, 5-{4-[5-(4-{[2-(4-bromophenyl)-6-hydroxy-1-benzothiophen-3-yl]oxy}phenoxy)pentyl]piperazin-1-yl}-2-(2,6-dioxopiperidin-3-yl)-2,3-dihydro-1H-isoindole-1,3-dione] came in with a DC50 of 10 to 100 nM and a Dmax of 50 to 75%. Also, the IC50 on ERα [2] (setting [4]) stood at 18.3 nM.
Turning to `O=C1CCC(N2Cc3cc(NCCCN4CCN(CCOc5ccc(Oc6c(-c7ccc(F)cc7)sc7cc(O)ccc67)cc5)CC4)ccc3C2=O)C(=O)N1` (stereo not drawn) [Compound 174, 3-[5-[3-[4-[2-[4-[2-(4-fluorophenyl)-6-hydroxy-benzothiophen-3-yl]oxyphenoxy]ethyl]piperazin-1-yl]propylamino]-1-oxo-isoindolin-2-yl]piperidine-2,6-dione], at ERα [1], the DC50 is less than 1 nM and the Dmax was more than 75%. For the same compound, the IC50 at ERα [2] (setting [3]) came out at 0.54 nM.
For `O=C1CCC(N2C(=O)c3ccc(N4CCN(CC5CCN(c6ccc(Oc7c(-c8ccc(O)cc8)sc8cc(O)ccc78)cc6)CC5)CC4)cc3C2=O)C(=O)N1` (stereo not drawn) [Compound 245, 2-(2,6-dioxo-3-piperidyl)-5-[4-[[1-[4-[6-hydroxy-2-(4-hydroxyphenyl)benzothiophen-3-yl]oxyphenyl]-4-piperidyl]methyl]piperazin-1-yl]isoindoline-1,3-dione] the same measures were 10 to 100 nM, 50 to 75% and 0.53 nM.
On ERα [1], `O=C1CCC(N2Cc3cc(NCCCOCCCOCCCOc4ccc(Oc5c(-c6ccc(Br)cc6)sc6cc(O)ccc56)cc4)ccc3C2=O)C(=O)N1` (stereo not drawn) [Compound 94, 3-[5-[3-[3-[3-[4-[2-(4-bromophenyl)-6-hydroxy-benzothiophen-3-yl]oxyphenoxy]propoxy]propoxy]propylamino]-1-oxo-isoindolin-2-yl]piperidine-2,6-dione] had a DC50 of 1 to 10 nM and a Dmax of 50 to 75%.
In the case of `O=C1CCC(N2Cc3c(ccc(N4CCN(CCCOc5ccc(Oc6c(-c7ccc(Br)cc7)sc7cc(O)ccc67)cc5)CC4)c3F)C2=O)C(=O)N1` (stereo not drawn) [Compound 208], the IC50 on ERα [2] (setting [3]) turned out to be 8.4 nM.
As to `Cc1nc2c(OCCN3CCN(CCOc4ccc(Oc5c(-c6ccc(Br)cc6)sc6cc(O)ccc56)cc4)CC3)cccc2c(=O)n1C1CCC(=O)NC1=O` (stereo not drawn) [Compound 16], the IC50 on ERα [2] (setting [4]) was 8.8 nM.
For `Cc1ncsc1-c1ccc(CNC(=O)[C@@H]2C[C@@H](O)CN2C(=O)[C@@H](NC(=O)CCCC(=O)N2CCN(CCOc3ccc(Oc4c(-c5ccc(F)cc5)sc5cc(O)ccc45)cc3)[C@@H](C)C2)C(C)(C)C)cc1` [Compound 124], the IC50 at ERα [2] (setting [5]) was found to be 2.2 nM.
The same measure, in the same setting: as for `CC(C)(C)[C@H](NC(=O)Cc1ccc(-c2ccn(CCOc3ccc(Oc4c(-c5ccc(F)cc5)sc5cc(O)ccc45)cc3)n2)cc1)C(=O)N1C[C@H](O)C[C@H]1C(=O)NCc1ccc(Cl)cc1` [Compound 146], the figure is more than 100 nM.
As for `O=C1CCC(N2Cc3cc(OCCCN4CCN(CCOc5ccc(Oc6c(-c7ccc(Br)cc7)sc7cc(O)ccc67)cc5)CC4)ccc3C2=O)C(=O)N1` (stereo not drawn) [Compound 34], on ERα [2] (setting [4]), the concentration for half-maximal inhibition (IC50) amounted to 1 nM.
With `O=C1CCC(N2Cc3cc(NCCCOCCOCCOc4ccc(Oc5c(-c6ccc(Br)cc6)sc6cc(O)ccc56)cc4)ccc3C2=O)C(=O)N1` (stereo not drawn) [Compound 171], the 50% inhibitory concentration (IC50) on ERα [2] (setting [3]) amounted to 8.7 nM.
As to `C[C@@H](COc1ccc(Oc2c(-c3ccc(Br)cc3)sc3cc(O)ccc23)cc1)N1CCN(CC(=O)NCc2ccc3c(c2)CN(C2CCC(=O)NC2=O)C3=O)CC1` (stereo partly drawn) [Compound 12], the IC50 on ERα [2] (setting [4]) is 2.5 nM.
Consider `Cc1ncsc1-c1ccc(CNC(=O)[C@@H]2CCCN2C(=O)[C@@H](NC(=O)COCCN2CCN(CCOc3ccc(Oc4c(-c5ccc(Br)cc5)sc5cc(O)ccc45)cc3)CC2)C(C)(C)C)cc1` [Compound 156], for which, at ERα [2] (setting [5]), the IC50 was more than 100 nM.
With `O=C1CCC(N2C(=O)c3ccc(N4CCN(CCCOc5ccc(Oc6c(-c7ccc(Br)cc7)sc7cc(O)ccc67)cc5)CC4)cc3C2=O)C(=O)N1` (stereo not drawn) [Compound 49], at ERα [2] (setting [4]), the IC50 stood at 17.7 nM.
